The subject of data set [1] is A549 human lung carcinoma cells. Nature of the data set: anti-proliferation, SRB colorimetric assay, A549. It counts as cell-based. Conditions: concentration required for 50% growth inhibition, read-out: IC50 (μM, mean ± S.D.).
In the next data set the target is T1, FLT-3 (Homo sapiens, UniProt P36888).
T1 sequence (P36888 27-993): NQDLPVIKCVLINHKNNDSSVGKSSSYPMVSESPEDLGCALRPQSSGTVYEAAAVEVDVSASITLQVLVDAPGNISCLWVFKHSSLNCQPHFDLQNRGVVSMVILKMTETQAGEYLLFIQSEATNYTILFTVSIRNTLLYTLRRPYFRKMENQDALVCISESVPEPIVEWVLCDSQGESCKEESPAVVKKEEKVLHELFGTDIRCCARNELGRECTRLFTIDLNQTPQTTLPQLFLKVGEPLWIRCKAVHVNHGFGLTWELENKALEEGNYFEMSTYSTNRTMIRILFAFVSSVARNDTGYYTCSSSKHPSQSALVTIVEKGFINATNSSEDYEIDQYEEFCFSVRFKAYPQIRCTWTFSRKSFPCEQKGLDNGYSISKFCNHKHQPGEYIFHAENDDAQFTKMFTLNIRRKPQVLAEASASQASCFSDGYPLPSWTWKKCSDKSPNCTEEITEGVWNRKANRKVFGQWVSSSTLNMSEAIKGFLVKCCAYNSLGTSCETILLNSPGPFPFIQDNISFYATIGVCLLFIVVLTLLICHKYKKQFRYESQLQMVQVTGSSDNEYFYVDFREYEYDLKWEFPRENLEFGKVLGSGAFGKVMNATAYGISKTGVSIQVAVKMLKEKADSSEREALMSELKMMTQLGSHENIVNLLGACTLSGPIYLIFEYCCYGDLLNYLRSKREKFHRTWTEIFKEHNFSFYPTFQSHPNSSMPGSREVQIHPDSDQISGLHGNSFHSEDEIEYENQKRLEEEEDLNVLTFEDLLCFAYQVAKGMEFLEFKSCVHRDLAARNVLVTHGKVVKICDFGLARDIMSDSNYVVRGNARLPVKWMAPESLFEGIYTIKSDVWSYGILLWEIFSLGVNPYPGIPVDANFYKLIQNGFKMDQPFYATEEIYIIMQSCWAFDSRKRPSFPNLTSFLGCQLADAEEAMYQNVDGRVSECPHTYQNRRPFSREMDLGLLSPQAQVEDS
The experiment in a line: radioisotope-based P81 filter-binding assay, FLT-3 kinase. Conditions: averaged from two independent dose-response curves; read-out: Enzyme assay IC50 FLT-3. The format is biochemical. On the procedure: (§1) Compounds of formula (I)-(IV) were evaluated for abilities in inhibiting protein kinases aurora B and FLT-3 activity using radioisotope-based P81 filter-binding assay (Table 1).

The next data set deals with aurora B (Homo sapiens, UniProt Q96GD4). The experiment in a line: radioisotope-based P81 filter-binding assay, aurora B kinase. The format is biochemical. Conditions: averaged from two independent dose-response curves; read-out: Enzyme assay IC50 Aur B. On the procedure:
as §1

In data set [2] the test system is HepG2 human hepatocellular carcinoma cells. The experiment in a line: anti-proliferation, SRB colorimetric assay, HepG2. The format is cell-based. Conditions: concentration required for 50% growth inhibition, read-out: IC50 (μM, mean ± S.D.). The source says: HCT116 human colorectal carcinoma cells (Table 3), HepG2 human hepatocellular carcinoma cells (Table 4), and MV4-11 human acute myelomonocytic leukemia cells (Table 5).

Data set [3] deals with MV4-11 human acute myelomonocytic leukemia cells. Nature of the data set: anti-proliferation, SRB colorimetric assay, MV4-11. The format is cell-based. To be noted: concentration required for 50% growth inhibition. On the procedure: (§2) HCT116 human colorectal carcinoma cells (Table 3), HepG2 human hepatocellular carcinoma cells (Table 4), and MV4-11 human acute myelomonocytic leukemia cells (Table 5). Cells were treated with the test compound and the concentration required for 50% growth inhibition (IC50) determined by sulfomodamine B (SRB) colorimetric assay.

Data set [4] has as its system HCT116 human colorectal carcinoma cells. The experiment in a line: anti-proliferation, SRB colorimetric assay, HCT116. It counts as cell-based. Conditions: HCT-116, concentration required for 50% growth inhibition, read-out: IC50 (μM, mean ± S.D.). On the procedure:
as §2

A further data set concerns Huh7 cancer cell line. Nature of the data set: in vivo efficacy, Huh7 xenografts in SCID mice. Conditions: established xenografts of Huh7 cancer cell line in female SCID mice.

Bounds are passed on as bounds.

Chain of aurora B (Q96GD4 whole entry): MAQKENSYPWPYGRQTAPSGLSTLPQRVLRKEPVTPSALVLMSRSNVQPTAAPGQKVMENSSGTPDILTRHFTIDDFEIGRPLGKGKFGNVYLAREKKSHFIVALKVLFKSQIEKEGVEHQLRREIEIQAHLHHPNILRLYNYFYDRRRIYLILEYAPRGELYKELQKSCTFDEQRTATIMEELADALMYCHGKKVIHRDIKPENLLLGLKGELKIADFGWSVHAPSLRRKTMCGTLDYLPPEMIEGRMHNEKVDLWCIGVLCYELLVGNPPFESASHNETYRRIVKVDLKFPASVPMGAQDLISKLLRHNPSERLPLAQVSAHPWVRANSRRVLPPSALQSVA

As to `O=C1Nc2cc(NC(=O)c3c[nH]cc(-c4ccccc4F)c3=O)ccc2/C1=C/c1ccc[nH]1` [D134, (Z)—N-(3-((1H-pyrrol-2-yl)methylene)-2-oxoindolin-6-yl)-4-oxo-5-(2-fluorophenyl)-1,4-dihydropyridine-3-carboxamide], the melting point was greater than 300 °C. In addition, the IC50 in data set [1] stood at 0.46 ± 0.06 µM. Also, at FLT-3, the IC50 came out at 100 nM. In addition, the IC50 at aurora B was 25.5 nM. In data set [2], the IC50 was determined as 0.6 ± 0.07 µM. In addition, the IC50 in data set [3] was determined as 13.2 nM. Also, the concentration for half-maximal inhibition (IC50) in data set [4] stood at 0.73 ± 0.09 µM. Besides, the tumor size entry in the data set on Huh7 cancer cell line was “suppressed the tumor size”.
For `O=C1Nc2cc(NC(=O)c3c[nH]cc(-c4ccc(F)cc4F)c3=O)ccc2/C1=C/c1ccc[nH]1` [D135, (Z)—N-(3-((1H-pyrrol-2-yl)methylene)-2-oxoindolin-6-yl)-4-oxo-5-(2,4-difluorophenyl)-1,4-dihydropyridine-3-carboxamide], the melting point is greater than 300 °C. Further, the IC50 in data set [1] is 0.59 ± 0.09 µM. In addition, the IC50 at FLT-3 was found to be 50.1 nM. Also, the half-maximal inhibitory concentration (IC50) on aurora B was determined as 64.5 nM. The half-maximal inhibitory concentration (IC50) in data set [2] was found to be 0.56 ± 0.16 µM. This compound registered an IC50 in data set [3] of 4.25 nM. In addition, in data set [4], the IC50 is 0.78 ± 0.1 µM.

The record behind these values is patent publication US8946282B2, “Indolin-2-one derivatives as protein kinase inhibitors” (Annji Pharmaceutical Co., Ltd., priority 2012, dated 2015).
